In the NIST ThermoML archive (doi:10.1016/j.jct.2019.02.028):

Assay: xn = mol fraction of the nth substance listed
Conditions: Gas, Burnett expansion method

C=C(F)C(F)(F)F [2,3,3,3-tetrafluoro-1-propene] + FCF
Conditions	mass density [kg/m3]
353.42 K, 2273.3 kPa, x2 = 0.259	105.33
353.43 K, 588.71 kPa, x2 = 0.874	12.5
353.43 K, 1253 kPa, x2 = 0.874	28.21
353.47 K, 861.21 kPa, x2 = 0.874	18.78
358.31 K, 1928.5 kPa, x2 = 0.698	54.05
358.32 K, 1240.6 kPa, x2 = 0.449	40.46
358.33 K, 586.28 kPa, x2 = 0.449	17.94
358.33 K, 2665 kPa, x2 = 0.698	81.18
358.34 K, 639.13 kPa, x2 = 0.698	15.95
358.34 K, 1357.4 kPa, x2 = 0.698	35.99
358.34 K, 1994 kPa, x2 = 0.119	94.76
358.34 K, 2418.3 kPa, x2 = 0.449	91.37
358.34 K, 3167.9 kPa, x2 = 0.449	137.24
358.34 K, 3474 kPa, x2 = 0.874	95.77
358.35 K, 591.83 kPa, x2 = 0.259	20.68
358.35 K, 858.88 kPa, x2 = 0.449	26.94
358.35 K, 937.43 kPa, x2 = 0.698	23.96
358.35 K, 1463 kPa, x2 = 0.119	63.06
358.35 K, 1759.6 kPa, x2 = 0.449	60.82
358.35 K, 2335.1 kPa, x2 = 0.259	105.31
358.35 K, 2564.1 kPa, x2 = 0.874	63.62
358.35 K, 3529.2 kPa, x2 = 0.698	121.89
358.36 K, 1237.2 kPa, x2 = 0.259	46.66
358.36 K, 1730.8 kPa, x2 = 0.259	70.06
358.36 K, 1828.8 kPa, x2 = 0.874	42.36
358.36 K, 2579.2 kPa, x2 = 0.119	142.43
358.36 K, 2999.2 kPa, x2 = 0.259	158.78
358.36 K, 4405.8 kPa, x2 = 0.698	183.14
358.36 K, 4479.7 kPa, x2 = 0.874	144.13
358.37 K, 719.85 kPa, x2 = 0.119	27.94
358.37 K, 862.94 kPa, x2 = 0.259	31.07
358.37 K, 1037.7 kPa, x2 = 0.119	41.96
358.38 K, 1274.6 kPa, x2 = 0.874	28.2
358.38 K, 3076.3 kPa, x2 = 0.119	213.92
358.39 K, 597.87 kPa, x2 = 0.874	12.5
358.41 K, 875.21 kPa, x2 = 0.874	18.78
363.26 K, 1966.8 kPa, x2 = 0.698	54.03
363.26 K, 2727.3 kPa, x2 = 0.698	81.16
363.27 K, 1262.7 kPa, x2 = 0.449	40.45
363.28 K, 595.28 kPa, x2 = 0.449	17.93
363.28 K, 648.9 kPa, x2 = 0.698	15.95
363.28 K, 2476.7 kPa, x2 = 0.449	91.33
363.28 K, 3265.9 kPa, x2 = 0.449	137.17
363.28 K, 3632.6 kPa, x2 = 0.698	121.86
363.28 K, 4041.7 kPa, x2 = 0.449	205.81
363.29 K, 1381.4 kPa, x2 = 0.698	35.97
363.29 K, 1795.1 kPa, x2 = 0.449	60.79
363.29 K, 1863 kPa, x2 = 0.874	42.34
363.29 K, 2043.8 kPa, x2 = 0.119	94.71
363.29 K, 2396.3 kPa, x2 = 0.259	105.29
363.29 K, 3100.7 kPa, x2 = 0.259	158.62
363.29 K, 3726.8 kPa, x2 = 0.259	238.72
363.29 K, 4575.5 kPa, x2 = 0.698	183.09
363.3 K, 601.42 kPa, x2 = 0.259	20.68
363.3 K, 872.75 kPa, x2 = 0.449	26.93
363.3 K, 1296.1 kPa, x2 = 0.874	28.19
363.3 K, 1768.3 kPa, x2 = 0.259	70.06
363.3 K, 2619.4 kPa, x2 = 0.874	63.6
363.3 K, 2663.3 kPa, x2 = 0.119	142.34
363.3 K, 3565.6 kPa, x2 = 0.874	95.7
363.3 K, 4630.5 kPa, x2 = 0.874	143.96
363.31 K, 731.75 kPa, x2 = 0.119	27.93
363.31 K, 952.86 kPa, x2 = 0.698	23.95
363.31 K, 1056.3 kPa, x2 = 0.119	41.95
363.31 K, 1260.4 kPa, x2 = 0.259	46.66
363.31 K, 3222.3 kPa, x2 = 0.119	213.79
363.32 K, 877.52 kPa, x2 = 0.259	31.06
363.32 K, 1493.6 kPa, x2 = 0.119	63.03
363.33 K, 606.82 kPa, x2 = 0.874	12.5
363.33 K, 888.85 kPa, x2 = 0.874	18.77
368.2 K, 2004.8 kPa, x2 = 0.698	54.02
368.22 K, 604.3 kPa, x2 = 0.449	17.93
368.22 K, 658.7 kPa, x2 = 0.698	15.94
368.22 K, 1285 kPa, x2 = 0.449	40.44
368.22 K, 2534.6 kPa, x2 = 0.449	91.28
368.22 K, 2789.6 kPa, x2 = 0.698	81.13
368.22 K, 3362.6 kPa, x2 = 0.449	137.11
368.22 K, 4205.2 kPa, x2 = 0.449	205.77
368.23 K, 967.59 kPa, x2 = 0.698	23.94
368.23 K, 1830.4 kPa, x2 = 0.449	60.77
368.23 K, 3201.4 kPa, x2 = 0.259	158.47
368.23 K, 3655.1 kPa, x2 = 0.874	95.63
368.23 K, 3734.8 kPa, x2 = 0.698	121.83
368.23 K, 3898.2 kPa, x2 = 0.259	238.37
368.23 K, 4743.3 kPa, x2 = 0.698	183.03
368.24 K, 610.69 kPa, x2 = 0.259	20.68
368.24 K, 1317.5 kPa, x2 = 0.874	28.18
368.24 K, 1405.2 kPa, x2 = 0.698	35.96
368.24 K, 1523.3 kPa, x2 = 0.119	63.01
368.24 K, 1805.3 kPa, x2 = 0.259	70.05
368.24 K, 1897.2 kPa, x2 = 0.874	42.33
368.24 K, 2093.2 kPa, x2 = 0.119	94.66
368.24 K, 2457.3 kPa, x2 = 0.259	105.26
368.24 K, 2674.2 kPa, x2 = 0.874	63.58
368.24 K, 4778.9 kPa, x2 = 0.874	143.8
368.25 K, 743.56 kPa, x2 = 0.119	27.92
368.25 K, 886.98 kPa, x2 = 0.449	26.92
368.25 K, 1075 kPa, x2 = 0.119	41.94
368.25 K, 1283.3 kPa, x2 = 0.259	46.65
368.25 K, 2746.3 kPa, x2 = 0.119	142.24
368.25 K, 4383.2 kPa, x2 = 0.259	361.18
368.26 K, 891.98 kPa, x2 = 0.259	31.06
368.26 K, 3365.6 kPa, x2 = 0.119	213.65
368.27 K, 3774.3 kPa, x2 = 0.119	320.57
368.28 K, 615.74 kPa, x2 = 0.874	12.49
368.29 K, 902.66 kPa, x2 = 0.874	18.76
373.13 K, 2042.5 kPa, x2 = 0.698	54
373.14 K, 613.24 kPa, x2 = 0.449	17.92
373.15 K, 668.24 kPa, x2 = 0.698	15.94
373.15 K, 1428.2 kPa, x2 = 0.698	35.95
373.15 K, 2592.1 kPa, x2 = 0.449	91.24
373.15 K, 4365.9 kPa, x2 = 0.449	205.72
373.15 K, 4909.8 kPa, x2 = 0.698	182.98
373.16 K, 982.7 kPa, x2 = 0.698	23.94
373.16 K, 2850.9 kPa, x2 = 0.698	81.11
373.16 K, 3458.2 kPa, x2 = 0.449	137.04
373.16 K, 3835.9 kPa, x2 = 0.698	121.81
373.17 K, 1307 kPa, x2 = 0.449	40.43
373.17 K, 1552.9 kPa, x2 = 0.119	62.98
373.17 K, 1842 kPa, x2 = 0.259	70.05
373.17 K, 2141.9 kPa, x2 = 0.119	94.62
373.17 K, 3744.3 kPa, x2 = 0.874	95.56
